Data taken from patent publication US9695155B2, “Herbicidal substituted pyrimidinyloxy benzene compounds” (E. I. DU PONT DE NEMOURS AND COMPANY, priority 2013, dated 2017).

Tests used:
[1] = tested on: deadnettle; assay: Test D preemergence; assay type: in vivo, Lamium amplexicaule; details: Lamium amplexicaule, pre-emergence
Source text: (§1) Seeds of plant species selected from bluegrass (annual bluegrass, Poa annua), blackgrass (Alopecurus myosuroides), canarygrass (littleseed canarygrass, Phalaris minor), chickweed (common chickweed, Stellaria media), galium (catchweed bedstraw, Galium aparine), bromegrass, downy (downy bromegrass, Bromus tectorum), field poppy (Papaver rhoeas), field violet (Viola arvensis), green foxtail (Setaria viridis), deadnettle (henbit deadnettle, Lamium amplexicaule), Italian ryegrass (Lolium multiflorum), kochia (Kochia scoparia), lambsquarters (Chenopodium album), oilseed rape (Brassica napus), pigweed (Amaranthus retroflexus), chamomile (scentless chamomile, Matricaria inodora), Russian thistle (Salsola kali), speedwell (bird's-eye speedwell, Veronica persica), spring barley (Hordeum vulgare), spring wheat (Triticum aestivum), wild buckwheat (Polygonum convolvulus), wild mustard (Sinapis arvensis), wild oat (Avena fatua), wild radish (Raphanus raphanistrum), windgrass (Apera spica-venti), winter barley (Hordeum vulgare), and winter wheat (Triticum aestivum) were planted into a silt loam soil and treated preemergence with test chemicals formulated in a non-phytotoxic solvent mixture which included a surfactant.
(§2) At the same time, these species were planted in pots containing Redi-Earth® planting medium (Scotts Company, 14111 Scottslawn Road, Marysville, Ohio 43041) comprising spaghnum peat moss, vermiculite, wetting agent and starter nutrients and treated with postemergence applications of the test chemicals formulated in the same manner. Plants ranged in height from 2 to 18 cm (1- to 4-leaf stage). Treated plants and controls were maintained in a controlled growth environment for 7 to 21 days after which time all species were compared to controls and visually evaluated. Plant response ratings, summarized in Table D, are based on a scale of 0 to 100 where 0 is no effect and 100 is complete control. A dash (-) response means no test result.

[2] = tested on: spring wheat; assay: Test D preemergence; assay type: in vivo, Triticum aestivum; details: Triticum aestivum, pre-emergence
Source text: as §1, §2

[3] = tested on: winter wheat; assay: Test D preemergence; assay type: in vivo, Triticum aestivum; details: Triticum aestivum, pre-emergence
Source text: as §1, §2

[4] = tested on: wild mustard; assay: Test D preemergence; assay type: in vivo, Sinapis arvensis; details: Brassica, pre-emergence
Source text: as §1, §2

[5] = tested on: bluegrass; assay: Test D postemergence; assay type: in vivo, Poa annua; details: Poa annua, post-emergence, Postemergence, scale 0 to 100 (0 no effect, 100 complete control), read-out: Plant response rating, Bluegrass
Source text: as §1, §2

[6] = tested on: galium; assay: Test D postemergence; assay type: in vivo, Galium aparine; details: Galium, post-emergence
Source text: as §1, §2

[7] = tested on: field violet; assay: Test D postemergence; assay type: in vivo, Viola arvensis; details: Viola arvensis, post-emergence
Method in brief: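 After treatment, visual injury versus untreated plants, 0–100 scale, assessed at 7 to 21 days. Applications were made preemergence to silt loam-sown seed and postemergence to seedlings 2–18 cm high in potting medium.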

[8] = tested on: Italian ryegrass; assay: Test D postemergence; assay type: in vivo, Lolium multiflorum; details: Lolium multiflorum, post-emergence
Source text: as §1, §2

[9] = tested on: oilseed rape; assay: Test D postemergence; assay type: in vivo, Brassica napus; details: Brassica napus, post-emergence
Source text: as §1, §2

Compound: FC(F)(F)c1cnn(-c2ccccc2Oc2ncc(Br)cn2)c1 [Compound 18, 5-bromo-2-[2-[4-(trifluoromethyl)-1H-pyrazol-1-yl]phenoxy]pyrimidine]
- pest or weed control at 16 g/ha ([1]; 16 g ai/ha, scale 0 (no effect) to 100 (complete control), read-out: Plant response rating, Deadnettle): 10%
- pest or weed control at 31 g/ha ([1]; 31 g ai/ha, scale 0-100, read-out: Plant response rating, Deadnettle): 5%
- pest or weed control at 62 g/ha ([1]; 62 g ai/ha, scale 0-100, read-out: Plant response rating, Deadnettle): 55%
- pest or weed control at 125 g/ha ([1]; 125 g ai/ha, scale 0-100, read-out: Plant response rating, Deadnettle): 70%
- pest or weed control at 250 g/ha ([1]; 250 g ai/ha, scale 0-100, read-out: Plant response rating, Deadnettle): 100%
- plant injury at 16 g/ha ([2]; 16 g ai/ha, scale 0 (no effect) to 100 (complete control), read-out: Plant response rating, Wheat, Spring): 0%
- plant injury at 31 g/ha ([2]; 31 g ai/ha, scale 0 (no effect) to 100 (complete control), read-out: Plant response rating, Wheat, Spring): 0%
- plant injury at 62 g/ha ([2]; 62 g ai/ha, scale 0-100, read-out: Plant response rating, Wheat, Spring): 0%
- plant injury at 125 g/ha ([2]; 125 g ai/ha, scale 0-100, read-out: Plant response rating, Wheat, Spring): 5%
- plant injury at 250 g/ha ([2]; 250 g ai/ha, scale 0-100, read-out: Plant response rating, Wheat, Spring): 15%
- plant injury at 16 g/ha ([3]; 16 g ai/ha, scale 0 (no effect) to 100 (complete control), read-out: Plant response rating, Wheat, Winter): 0%
- plant injury at 31 g/ha ([3]; 31 g ai/ha, scale 0 (no effect) to 100 (complete control), read-out: Plant response rating, Wheat, Winter): 0%
- plant injury at 62 g/ha ([3]; 62 g ai/ha, scale 0-100, read-out: Plant response rating, Wheat, Winter): 5%
- plant injury at 125 g/ha ([3]; 125 g ai/ha, scale 0-100, read-out: Plant response rating, Wheat, Winter): 5%
- plant injury at 250 g/ha ([3]; 250 g ai/ha, scale 0-100, read-out: Plant response rating, Wheat, Winter): 40%
- pest or weed control at 16 g/ha ([4]; 16 g ai/ha, scale 0 (no effect) to 100 (complete control), read-out: Plant response rating, Mustard, Wild): 80%
- pest or weed control at 31 g/ha ([4]; 31 g ai/ha, scale 0-100, read-out: Plant response rating, Mustard, Wild): 85%
- pest or weed control at 62 g/ha ([4]; 62 g ai/ha, scale 0-100, read-out: Plant response rating, Mustard, Wild): 100%
- pest or weed control at 125 g/ha ([4]; 125 g ai/ha, scale 0-100, read-out: Plant response rating, Mustard, Wild): 90%
- pest or weed control at 250 g/ha ([4]; 250 g ai/ha, scale 0-100, read-out: Plant response rating, Mustard, Wild): 100%
- pest or weed control at 16 g/ha ([5]; 16 g ai/ha): 15%
- pest or weed control at 31 g/ha ([5]; 31 g ai/ha): 25%
- pest or weed control at 62 g/ha ([5]; 62 g ai/ha): 30%
- pest or weed control at 125 g/ha ([5]; 125 g ai/ha): 40%
- pest or weed control at 250 g/ha ([5]; 250 g ai/ha): 40%
- pest or weed control at 16 g/ha ([6]; 16 g ai/ha, scale 0-100, read-out: Plant response rating, Galium): 40%
- pest or weed control at 31 g/ha ([6]; 31 g ai/ha, scale 0 to 100 (0 no effect, 100 complete control), read-out: Plant response rating, Galium): 60%
- pest or weed control at 62 g/ha ([6]; 62 g ai/ha, scale 0 to 100 (0 no effect, 100 complete control), read-out: Plant response rating, Galium): 70%
- pest or weed control at 125 g/ha ([6]; 125 g ai/ha, scale 0 to 100 (0 no effect, 100 complete control), read-out: Plant response rating, Galium): 65%
- pest or weed control at 250 g/ha ([6]; 250 g ai/ha, scale 0 to 100 (0 no effect, 100 complete control), read-out: Plant response rating, Galium): 70%
- pest or weed control at 16 g/ha ([7]; 16 g ai/ha, scale 0-100, read-out: Plant response rating, Field Violet): 55%
- pest or weed control at 31 g/ha ([7]; 31 g ai/ha, scale 0 to 100 (0 no effect, 100 complete control), read-out: Plant response rating, Field Violet): 80%
- pest or weed control at 62 g/ha ([7]; 62 g ai/ha, scale 0 to 100 (0 no effect, 100 complete control), read-out: Plant response rating, Field Violet): 65%
- pest or weed control at 125 g/ha ([7]; 125 g ai/ha, scale 0 to 100 (0 no effect, 100 complete control), read-out: Plant response rating, Field Violet): 80%
- pest or weed control at 250 g/ha ([7]; 250 g ai/ha, scale 0 to 100 (0 no effect, 100 complete control), read-out: Plant response rating, Field Violet): 90%
- pest or weed control at 16 g/ha ([8]; 16 g ai/ha, scale 0-100, read-out: Plant response rating, Ryegrass, Italian): 5%
- pest or weed control at 31 g/ha ([8]; 31 g ai/ha, scale 0 to 100 (0 no effect, 100 complete control), read-out: Plant response rating, Ryegrass, Italian): 5%
- pest or weed control at 62 g/ha ([8]; 62 g ai/ha, scale 0 to 100 (0 no effect, 100 complete control), read-out: Plant response rating, Ryegrass, Italian): 5%
- pest or weed control at 125 g/ha ([8]; 125 g ai/ha, scale 0 to 100 (0 no effect, 100 complete control), read-out: Plant response rating, Ryegrass, Italian): 10%
- pest or weed control at 250 g/ha ([8]; 250 g ai/ha, scale 0 to 100 (0 no effect, 100 complete control), read-out: Plant response rating, Ryegrass, Italian): 15%
- plant injury at 16 g/ha ([9]; 16 g ai/ha, scale 0-100, read-out: Plant response rating, Oilseed Rape): 35%
- plant injury at 31 g/ha ([9]; 31 g ai/ha, scale 0 to 100 (0 no effect, 100 complete control), read-out: Plant response rating, Oilseed Rape): 70%
- plant injury at 62 g/ha ([9]; 62 g ai/ha, scale 0 to 100 (0 no effect, 100 complete control), read-out: Plant response rating, Oilseed Rape): 100%
- plant injury at 125 g/ha ([9]; 125 g ai/ha, scale 0 to 100 (0 no effect, 100 complete control), read-out: Plant response rating, Oilseed Rape): 100%
- plant injury at 250 g/ha ([9]; 250 g ai/ha, scale 0 to 100 (0 no effect, 100 complete control), read-out: Plant response rating, Oilseed Rape): 100%
